{"source": "patent US20240002846A1", "about": "“COMPOSITIONS AND METHODS FOR THE DIAGNOSIS AND TREATMENT OF ITCH” (Duke University, priority 2020, published 2024)", "key": {"mice": {"tested_on": "mice", "assay": "Effect of inhibitor pretreatment on LPA-, LPC- or miR-146a-induced scratching behavior", "type": "in vivo, mouse", "details": "for effect on LPC-induced itch, i.p. injection / effect on miR-146a-induced itch, i.p. injection: i.p.: SB366791 2 mg/kg, HC030031 30 mg/kg; for effect on LPC-induced itch, i.t. injection / effect on miR-146a-induced itch, i.t. injection: i.t. 30 μg", "protocol": "Behavioral assessment. Mice were shaved at the dorsal neck 1 d before experiments. […] After injections, mice were immediately placed back to the chamber, and the scratching behavior was recorded by a Panasonic video camera for 30 min. Hind limb scratching behavior directed toward the injected area at the nape of neck was observed. One scratch is defined as a lifting of the hind limb toward the injection site and then a replacing of the limb back to the floor, regardless of how many scratching strokes take place between those two movements. Behavioral analysis was conducted by observers blinded to genotype.\nControl animals received the same volume of vehicles.\nLumbar puncture was made with a 30G-needle and drugs at 5 μL of volume were delivered. Scratching behavior assay was started approximately 2 weeks after resiniferatoxin treatment."}, "DRG sensory neurons": {"tested_on": "DRG sensory neurons", "assay": "Ca2+ imaging in cultured DRG sensory neurons", "type": "cell-based, mouse", "details": "inhibitor 10 μM", "protocol": "Primary mouse sensory neurons were cultured following previous protocol (Chen et al. Pain 2014, 155, 2662-2672). DRGs from 2-3 weeks old male WT, Trpv1 KO, and Trpa1 KO mice were dissected and digested with 1 mg/mL collagenase (Worthington, CSL1) and 5 mg/mL dispase (Invitrogen, Waltham, MA) for 1 h, then triturated. The resulting cell suspension was filtered through a 70 μm cell strainer (BD Biosciences, Bedford, MA) to remove debris. Neurons were cultured in DH10 medium (1:1 DMEM:Hams-F12, Invitrogen, Waltham, MA) with 10% FBS (Sigma, St. Louis, MO), 100 U/mL penicillin and 100 μg/mL streptomycin (Gibco, Gaithersburg, MD) and 50 ng/mL nerve growth factor (NGF; USBiological) on coverslips coated with poly-D-lysine and laminin (Invitrogen, Waltham, MA), and incubated with 5% CO2 at 37° C. Ca^2+ imaging was performed next day after culture.\nIn vitro and ex vivo Ca^2+ imaging. Routine procedures were followed for Ca^2+ imaging in cultured DRG sensory neurons, epidermal keratinocytes, and HEK cells (Chen et al. J. Biol. Chem. 2016, 291, 10252-10262; Chen et al. Pain 2014, 155, 2662-2672). […] Ratios of emissions were acquired at 0.5 Hz. ΔR/R0 was determined as the fraction of the increase of a given ratio over baseline ratio divided by baseline ratio. […]"}, "DRG neurons": {"tested_on": "DRG neurons", "assay": "Ex vivo Ca2+ imaging of GCaMP3-expressing DRG explants", "type": "cell-based, mouse", "protocol": "A previously established method was followed for ex vivo Ca^2+ imaging of DRG explants (Kim et al. Neuron 2014, 81, 873-887). Intact DRGs (L4 or L5) were isolated from naïve male or female Pirt-GCaMP3 mice (2-3 months old) and equilibrated in artificial cerebrospinal fluid (ACSF) bubbled with 95% O2/5% CO2 at room temperature. After 15 min, explants were placed in a dish with 2 mL of pre-oxygenated ACSF and imaged using a Zeiss 780 upright confocal microscope (Carl Zeiss AG, Oberkochen, Germany) with 20× water immersion objective and Z-stack approach at the 488 nm wavelength. Explants were stimulated by miR-146a or miR-146a scramble. After 15 min recording, capsaicin was then applied to identify whether the miR-146a responding neurons were TRPV1 positive. […] Ca^2+ fluorescence intensity was determined using the ImageJ software (NIH, Bethesda, MD, USA). For each neuron, the pixel intensity (Ft) was assessed for each frame and the pixel intensity recorded from the first 20 frames was taken to determine the average baseline value (F0). Ca^2+ signal amplitudes are presented as ΔF/F0, which is the ratio of fluorescence difference (Ft−F0) to baseline (F0)."}, "[1]": {"tested_on": "extracellular release of miR-146a", "assay": "Extracellular release of miRs from cultured mouse keratinocytes (RT-qPCR)", "type": "cell-based", "details": "mKC; for effect of siRNA knockdown on LPC-elicited release of miR-146a: LPC 10 μM, 10 min, siRNA 72 h, vs Scramble+LPC; for decrease of extracellular-released miR-146a: siRNA knockdown, LPC stimulation", "protocol": "Primary mouse keratinocytes were cultured following previous protocol (Chen et al. J. Biol. Chem. 2016, 291, 10252-10262). The epidermis from the back skin of newborn WT or keratinocyte-Trpv4 cKO mice was separated from the dermis by floating the skin on 0.25% trypsin (Gibco, Gaithersburg, MD) for 14-18 h at 4° C. Basal keratinocytes were separated from the cornified sheets by filtration through a […] cell strainer. Keratinocytes were plated on collagen I-coated dishes or glass coverslips and grown in EME media (Gibco, Gaithersburg, MD) containing 8% chelex (Bio-rad, Hercules, CA)-treated FBS with the final Ca^2+ adjusted to 0.05 mM, bovine pituitary extract (50 μg/mL), epidermal growth factor (5 ng/mL), and lx antibiotics/antimycotics (Gibco, Gaithersburg, MD) in a humidified incubator with 5% CO2 at 37° C. for 5-7 days until use. To knockdown Trpv4 in isolated keratinocytes from newborn keratinocyte-Trpv4 cKO mice, cells were treated with 4-OH tamoxifen at 500 nM for 72 h.\nMeasurement of released vesicles and extracellular miR-146a from cultured keratinocytes or sera Medium for the cultured keratinocytes was replaced with serum-free medium 2 h before LPC stimulation. […] Finally, cell-free supernatants were further purified using a Vesicular Isolation kit (Invitrogen, Waltham, MA) according to the manufacturer's instructions, with final product resuspended in ice-cold PBS. Total RNA extraction was then carried out using a Total RNA Isolation kit (Invitrogen, Waltham, MA). Enrichment for small RNAs was carried out by sequential increase in ethanol concentration and passing through glass-fiber filters. RNase free water was used to elute small RNAs in the final elution step. For human PBC sera or sera from ANIT-treated mice, RNA was isolated using Qiagen miRNeasy Plasma/Serum kit. cDNA synthesis from extracted RNAs was performed according to manufacturer's instructions (qSTAR miRNA kit, Origene). For qPCR, the stem-loop oligonucleotides specific for the following miRs are as follows: miR-146a-5p (GAGAACTGAATTCCATGGG, SEQ ID NO: 4), miR-let-7b (GAGGTAGTAGGTTGTGTGG, SEQ ID NO: 5), miR-125b-1 (CCCT GAGACCCTAACTTG, SEQ ID NO: 6), miR-203 (GTGGTTC TTGACAGTTCAAC, SEQ ID NO: 7), and miR-16-5p (AGCAGCAC GTAAATATTGGC, SEQ ID NO: 8). Primers were purchased from Integrated DNA Technologies company (Coralville, IA). qPCR reactions for each sample were run in triplicates, including no-template controls. MiR-16-5p was selected as a control due to the relative constancy of its expression in various cultured cell lines (Schwarzenbach et al. Clin. Chem. 2015, 61, 1333-1342). qPCR for this miR was performed in tandem with target miRs to determine the optimal normalization procedure. To investigate the effects of the specific TRPV4 inhibitors GSK205 or HC067047 and the specific MEK inhibitor U0126 on LPC-induced extracellular release of miR-146a, cells were incubated with the inhibitors for 15 min before stimulation. Control cells received the same volume of vehicle.\nVesicular release from cultured keratinocytes was quantified by detecting acetylcholinesterase (AChE) activity in the extracellular release fluid. (Gupta et al. Am. J. Physiol. Heart Circ. Physiol. 2007, 292, H3052-3056; Malik et al. Methods Mol. Biol. 2016, 1448, 237-248). CBQCA Protein Quantitation Kit (Molecular Probes, Eugene, OR) was used to assess the total protein amounts of each sample. Quantitation was carried out according to kit instructions (Fluorocet, Systems Biosciences, Palo Alto, CA). Briefly, vesicles were lysed to release esterase enzyme whose activity is measured using a florescence dye, excitation at 544 nm and emission at 590 nm. Fluostar Optima (BMG Labtech, Cary, NC) microplate reader was used to measure esterase activity. 500 ng protein equivalent of input was used per well. […]"}, "[2]": {"tested_on": "vesicular release from mKC", "assay": "Vesicular release from cultured mouse keratinocytes (AChE activity)", "type": "cell-based", "details": "vs Scramble+LPC", "protocol": "Vesicular release from cultured keratinocytes was quantified by detecting acetylcholinesterase (AChE) activity in the extracellular release fluid. (Gupta et al. Am. J. Physiol. Heart Circ. Physiol. 2007, 292, H3052-3056; Malik et al. Methods Mol. Biol. 2016, 1448, 237-248). CBQCA Protein Quantitation Kit (Molecular Probes, Eugene, OR) was used to assess the total protein amounts of each sample. Quantitation was carried out according to kit instructions (Fluorocet, Systems Biosciences, Palo Alto, CA). Briefly, vesicles were lysed to release esterase enzyme whose activity is measured using a florescence dye, excitation at 544 nm and emission at 590 nm. Fluostar Optima (BMG Labtech, Cary, NC) microplate reader was used to measure esterase activity. 500 ng protein equivalent of input was used per well. To determine the contribution of Rab5a and Rab27a to LPC-induced miR-146a release, cells were pre-treated with the Rab5a (5′-GUAGAAUCAA GUUUCUAAUUCUGAA-3′ SEQ ID NO: 9, 5′-[…]-3′ SEQ ID NO: 10) or Rab27a (5′-AGCUAAAA CUGAGAGCUUCAAACAG-3′ SEQ ID NO: 11, 5′-[…]-3′ SEQ ID NO: 12) siRNA (IDT, Coralville, IA) for 72 h before stimulation. Control cells were treated with scramble siRNA."}}, "note": "“Also recorded” adds a separate entry of the source.", "data": [{"compound": "CC(C)c1ccc(NC(=O)Cn2cnc3c2c(=O)n(C)c(=O)n3C)cc1", "note": "[HC030031]", "values": [{"measurement": "effect on LPC-induced itch, i.p. injection", "setting": "mice", "value": "not significantly altered"}, {"measurement": "effect on miR-146a-induced itch, i.p. injection", "setting": "mice", "value": "not significantly altered"}, {"measurement": "effect on LPC-induced itch, i.t. injection", "setting": "mice", "value": "not significantly altered"}, {"measurement": "effect on miR-146a-induced itch, i.t. injection", "setting": "mice", "value": "not significantly altered"}, {"measurement": "effect on miR-146a (300 nM) induced Ca2+ influx", "setting": "DRG sensory neurons", "value": "not significantly altered"}]}, {"compound": "COc1cccc(NC(=O)/C=C/c2ccc(Cl)cc2)c1", "note": "[SB366791]", "values": [{"measurement": "effect on LPC-induced itch, i.p. injection", "setting": "mice", "value": "significantly reduced; also recorded: significantly attenuated"}, {"measurement": "effect on miR-146a-induced itch, i.p. injection", "setting": "mice", "value": "significantly reduced; also recorded: significantly attenuated"}, {"measurement": "effect on LPC-induced itch, i.t. injection", "setting": "mice", "value": "significantly reduced; also recorded: significantly attenuated"}, {"measurement": "effect on miR-146a-induced itch, i.t. injection", "setting": "mice", "value": "significantly reduced; also recorded: significantly attenuated"}, {"measurement": "effect on percentage of total DRG neurons responding to miR-146a (300 nM)", "setting": "DRG neurons; inhibitor 10 μM", "value": "significantly reduced"}, {"measurement": "effect on miR-146a (300 nM) induced Ca2+ influx", "setting": "DRG sensory neurons", "value": "significantly reduced"}]}, {"compound": "COc1cc(CNC(=O)CCCC/C=C/C(C)C)ccc1O", "note": "[capsaicin]", "values": [{"measurement": "Ca2+ signal in sensory neurons following stimulation", "setting": "DRG neurons; miR-146a 300 nM, capsaicin 1 μM", "value": "increased"}]}, {"compound": "Rab5a siRNA: siRNA against Rab5a, SEQ ID NO: 9 and 10 (chain 1 GUAGAAUCAAGUUUCUAAUUCUGAA; chain 2 UUCAGAAUUAGAAACUUGAUUCUACCA; listed as RNA, chemistry not given here)", "values": [{"measurement": "effect of siRNA knockdown on LPC-elicited release of miR-146a", "setting": "[1]", "value": "significant decrease"}, {"measurement": "decrease of extracellular-released miR-146a", "setting": "[1]", "value": "~40", "unit": "%"}, {"measurement": "effect of siRNA on LPC-elicited vesicular release", "setting": "[2]", "value": "completely eliminated; also recorded: significant decrease"}]}, {"compound": "Rab27a siRNA: siRNA against Rab27a, SEQ ID NO: 11 and 12 (chain 1 AGCUAAAACUGAGAGCUUCAAACAG; chain 2 CUGUUUGAAGCUCUCAGUUUUAGCUUA; listed as RNA, chemistry not given here)", "values": [{"measurement": "effect of siRNA knockdown on LPC-elicited release of miR-146a", "setting": "[1]", "value": "significant decrease"}, {"measurement": "decrease of extracellular-released miR-146a", "setting": "[1]", "value": "~40", "unit": "%"}, {"measurement": "effect of siRNA on LPC-elicited vesicular release", "setting": "[2]", "value": "completely eliminated; also recorded: significant decrease"}]}]}
